According to PubChem BioAssay AID248 (DTP/NCI, 2004):
Values joined by “and” are separate entries in the source; they are usually repeats but may differ in a detail not shown here. Equal entries are not always repeated. Toxic doses and inconclusive results are not listed. Rule as the data show it: active = T/C of 150% or more; inactive = T/C below 125%. Square brackets hold non-standard residues; d marks the D form. Peptide text beside a SMILES is read from it. * marks the point of attachment. Cbz = O=C(OCc1ccccc1)*; Abu = CC[CH](N)C(=O)O; OBn = c1ccc(CO*)cc1

Tested on: L1210 leukemia ip in BDF1 mice, survival T/C
Assay: NCI In Vivo Anticancer Drug Screen. Data for tumor model L1210 Leukemia (intraperitoneal) in B6D2F1 (BDF1) mice
Settings: endpoint: mean survival time, higher = longer survival
Method in brief: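 Tumor cells were implanted, animals were treated, and survival was followed. The result divides the treated measurement by the vehicle-control measurement.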

[1] = dose: 100.0 mg/kg/injection, schedule: Q01DX009 (ip), vehicle: saline with Tween-80
[2] = dose: 100.0 mg/kg/injection, schedule: Q04DX003 (ip), vehicle: saline with Tween-80
[3] = dose: 200.0 mg/kg/injection, schedule: Q01DX009 (ip), vehicle: saline with Tween-80
[4] = dose: 200.0 mg/kg/injection, schedule: Q04DX003 (ip), vehicle: saline with Tween-80
[5] = dose: 400.0 mg/kg/injection, schedule: Q01DX009 (ip), vehicle: saline with Tween-80
[6] = dose: 400.0 mg/kg/injection, schedule: Q04DX003 (ip), vehicle: saline with Tween-80
[7] = dose: 100.0 mg/kg/injection, schedule: Q01DX009 (ip), vehicle: Klucel (hydroxypropylcellulose) (HPC)
[8] = dose: 200.0 mg/kg/injection, schedule: Q01DX009 (ip), vehicle: Klucel (hydroxypropylcellulose) (HPC)
[9] = dose: 400.0 mg/kg/injection, schedule: Q01DX009 (ip), vehicle: Klucel (hydroxypropylcellulose) (HPC)
[10] = dose: 50.0 mg/kg/injection, schedule: Q01DX001 (ip), vehicle: saline
[11] = dose: 100.0 mg/kg/injection, schedule: Q01DX001 (ip), vehicle: saline
[12] = dose: 200.0 mg/kg/injection, schedule: Q01DX001 (ip), vehicle: saline
[13] = dose: 400.0 mg/kg/injection, schedule: Q01DX001 (ip), vehicle: saline
[14] = dose: 100.0 mg/kg/injection, schedule: Q04DX003 (ip), vehicle: Klucel (hydroxypropylcellulose) (HPC)
[15] = dose: 200.0 mg/kg/injection, schedule: Q04DX003 (ip), vehicle: Klucel (hydroxypropylcellulose) (HPC)
[16] = dose: 400.0 mg/kg/injection, schedule: Q04DX003 (ip), vehicle: Klucel (hydroxypropylcellulose) (HPC)
[17] = dose: 100.0 mg/kg/injection, schedule: Q04DX002 (ip), vehicle: Klucel (hydroxypropylcellulose) (HPC)
[18] = dose: 200.0 mg/kg/injection, schedule: Q04DX002 (ip), vehicle: Klucel (hydroxypropylcellulose) (HPC)
[19] = dose: 400.0 mg/kg/injection, schedule: Q04DX002 (ip), vehicle: Klucel (hydroxypropylcellulose) (HPC)

Measured: T/C

O=C(O)C1(C(=O)O)CCC2(CCCCC2)CC1
inactive: dose: 25.0 mg/kg/injection, schedule: Q01DX009 (ip), vehicle: water 95 % of control | dose: 50.0 mg/kg/injection, schedule: Q01DX009 (ip), vehicle: water 101 % of control

NC(=O)CCC(N)C(=O)O (configuration not stated)
inactive: dose: 6.25 mg/kg/injection, schedule: Q01DX009 (ip), vehicle: saline 108 % of control | [1] 97 % of control | [2] 94 % of control | [3] 90 % of control | [4] 93 % of control | [5] 93 % of control | [6] 96 % of control

COc1cccc(NC(=O)Nc2cccc(C(F)(F)F)c2)c1
inactive: [7] 96 % of control | [8] 101 % of control | [9] 101 % of control

CC[N+](CC)(CC)CC(=O)NCc1ccco1
inactive: dose: 50.0 mg/kg/injection, schedule: Q01DX001 (ip), vehicle: carboxymethylcellulose (CMC) 105 % of control | dose: 50.0 mg/kg/injection, schedule: Q01DX009 (ip), vehicle: carboxymethylcellulose (CMC) 103 % of control | dose: 50.0 mg/kg/injection, schedule: Q04DX003 (ip), vehicle: carboxymethylcellulose (CMC) 94 % of control | dose: 100.0 mg/kg/injection, schedule: Q01DX001 (ip), vehicle: carboxymethylcellulose (CMC) 99 % of control | dose: 100.0 mg/kg/injection, schedule: Q01DX009 (ip), vehicle: carboxymethylcellulose (CMC) 103 % of control and 104 % of control | dose: 100.0 mg/kg/injection, schedule: Q04DX002 (ip), vehicle: carboxymethylcellulose (CMC) 95 % of control and 103 % of control | dose: 100.0 mg/kg/injection, schedule: Q04DX003 (ip), vehicle: carboxymethylcellulose (CMC) 102 % of control | dose: 200.0 mg/kg/injection, schedule: Q01DX001 (ip), vehicle: carboxymethylcellulose (CMC) 99 % of control | dose: 200.0 mg/kg/injection, schedule: Q01DX009 (ip), vehicle: carboxymethylcellulose (CMC) 101 % of control and 90 % of control | dose: 200.0 mg/kg/injection, schedule: Q04DX002 (ip), vehicle: carboxymethylcellulose (CMC) 97 % of control and 92 % of control | dose: 200.0 mg/kg/injection, schedule: Q04DX003 (ip), vehicle: carboxymethylcellulose (CMC) 102 % of control | dose: 400.0 mg/kg/injection, schedule: Q04DX002 (ip), vehicle: carboxymethylcellulose (CMC) 90 % of control

Cc1ccc(-n2c(O)c(N=Nc3ccccc3C)c(=O)n(-c3ccc(Br)cc3)c2=S)cc1
inactive: dose: 37.5 mg/kg/injection, schedule: Q01DX001 (ip), vehicle: Klucel (hydroxypropylcellulose) (HPC) 96 % of control | dose: 75.0 mg/kg/injection, schedule: Q01DX001 (ip), vehicle: Klucel (hydroxypropylcellulose) (HPC) 101 % of control | dose: 150.0 mg/kg/injection, schedule: Q01DX001 (ip), vehicle: Klucel (hydroxypropylcellulose) (HPC) 110 % of control

CN1CCCC(CC2c3ccccc3Sc3ccccc32)C1 (configuration not stated)
inactive: dose: 2.0 mg/kg/injection, schedule: Q01DX015 (ip), vehicle: carboxymethylcellulose (CMC) 108 % of control | dose: 4.0 mg/kg/injection, schedule: Q01DX015 (ip), vehicle: carboxymethylcellulose (CMC) 98 % of control | dose: 8.0 mg/kg/injection, schedule: Q01DX015 (ip), vehicle: carboxymethylcellulose (CMC) 97 % of control | dose: 16.0 mg/kg/injection, schedule: Q01DX015 (ip), vehicle: carboxymethylcellulose (CMC) 91 % of control | dose: 32.0 mg/kg/injection, schedule: Q01DX015 (ip), vehicle: carboxymethylcellulose (CMC) 92 % of control

CC(=O)OCC1OC(n2cnc([N+](=O)[O-])c2C#N)C(OC(C)=O)C1OC(C)=O (configuration not stated)
inactive: [10] 102 % of control | [11] 108 % of control | [12] 102 % of control | [13] 92 % of control

O=C(Nc1ccc(F)c([N+](=O)[O-])c1)c1ccc2c(c1)C(=O)OC2=O
inactive: [11] 99 % of control | dose: 100.0 mg/kg/injection, schedule: Q01DX009 (ip), vehicle: saline 102 % of control and 92 % of control | dose: 100.0 mg/kg/injection, schedule: Q04DX002 (ip), vehicle: saline 104 % of control and 109 % of control | dose: 100.0 mg/kg/injection, schedule: Q04DX003 (ip), vehicle: saline 106 % of control | [12] 99 % of control | dose: 200.0 mg/kg/injection, schedule: Q01DX009 (ip), vehicle: saline 100 % of control and 92 % of control | dose: 200.0 mg/kg/injection, schedule: Q04DX002 (ip), vehicle: saline 96 % of control and 104 % of control | dose: 200.0 mg/kg/injection, schedule: Q04DX003 (ip), vehicle: saline 111 % of control | [13] 104 % of control | dose: 400.0 mg/kg/injection, schedule: Q01DX009 (ip), vehicle: saline 105 % of control and 92 % of control | dose: 400.0 mg/kg/injection, schedule: Q04DX002 (ip), vehicle: saline 96 % of control and 104 % of control | dose: 400.0 mg/kg/injection, schedule: Q04DX003 (ip), vehicle: saline 103 % of control

CS(=O)(=O)OCCN(CCOS(C)(=O)=O)c1ccc(C=Nc2ccc(C(=O)O)cc2)c(Cl)c1
inactive: [14] 120 % of control | [15] 105 % of control | [16] 86 % of control

CC(=Nc1cccc2ccccc12)c1c(O)cc(C)oc1=O
inactive: [7] 100 % of control | [17] 98 % of control | [8] 95 % of control | [18] 98 % of control | [9] 92 % of control | [19] 95 % of control

CCCCCCCc1c(C)[nH]c2ccccc2c1=O
inactive: [7] 86 % of control | dose: 100.0 mg/kg/injection, schedule: Q04DX003 (ip), vehicle: other 98 % of control | dose: 200.0 mg/kg/injection, schedule: Q04DX003 (ip), vehicle: other 94 % of control | dose: 400.0 mg/kg/injection, schedule: Q04DX003 (ip), vehicle: other 91 % of control

O=C(CCCC(=O)N/N=C/c1cccc(O)c1)N/N=C\c1cccc(O)c1
inactive: [10] 98 % of control | [11] 104 % of control | [12] 98 % of control | [13] 92 % of control

CCC(NC(=O)OCc1ccccc1)C(=O)NC(C(=O)OCc1ccccc1)C(C)CC (configuration not stated) (Cbz-[Abu]-Ile-OBn; configuration not given here)
inactive: [2] 92 % of control | [4] 92 % of control | [6] 93 % of control

CC12C(=O)OC(=O)C1C1C=CC2CC1 (configuration not stated)
inactive: [2] 101 % of control | [4] 98 % of control | [6] 101 % of control

CCCCC(O)CCC (configuration not stated)
inactive: [7] 96 % of control | [1] 98 % of control | [14] 98 % of control | [2] 100 % of control | [8] 107 % of control | [3] 95 % of control | [15] 93 % of control | [4] 98 % of control | [9] 95 % of control | [5] 91 % of control | [16] 93 % of control | [6] 98 % of control

Cc1cn(Cc2ccc(Cl)cc2Cl)c(C)n1
inactive: dose: 25.0 mg/kg/injection, schedule: Q01DX001 (ip), vehicle: Klucel (hydroxypropylcellulose) (HPC) 100 % of control | dose: 25.0 mg/kg/injection, schedule: Q01DX009 (ip), vehicle: Klucel (hydroxypropylcellulose) (HPC) 97 % of control and 109 % of control | dose: 50.0 mg/kg/injection, schedule: Q01DX001 (ip), vehicle: Klucel (hydroxypropylcellulose) (HPC) 100 % of control | dose: 50.0 mg/kg/injection, schedule: Q04DX002 (ip), vehicle: Klucel (hydroxypropylcellulose) (HPC) 102 % of control and 108 % of control | dose: 100.0 mg/kg/injection, schedule: Q01DX001 (ip), vehicle: Klucel (hydroxypropylcellulose) (HPC) 94 % of control

O=[N+]([O-])c1ccc(Cl)c(OCCBr)c1
inactive: dose: 100.0 mg/kg/injection, schedule: Q01DX009 (ip), vehicle: gum acacia 95 % of control | dose: 200.0 mg/kg/injection, schedule: Q01DX009 (ip), vehicle: gum acacia 94 % of control | dose: 400.0 mg/kg/injection, schedule: Q01DX009 (ip), vehicle: gum acacia 89 % of control

CCCCCCCCCCCCSC(=O)Nc1ccc(C(=O)OCC)cc1
inactive: [17] 95 % of control | [18] 116 % of control | [19] 92 % of control

O=C(O)c1c(Cl)c(Cl)c(Cl)c(Cl)c1C(=O)c1ccccc1
inactive: dose: 75.0 mg/kg/injection, schedule: Q01DX001 (ip), vehicle: saline 109 % of control | dose: 150.0 mg/kg/injection, schedule: Q01DX001 (ip), vehicle: saline 113 % of control | dose: 300.0 mg/kg/injection, schedule: Q01DX001 (ip), vehicle: saline 101 % of control
